“And” between values parts separate entries of the source, which are not always exact repeats. Identical values can stand only once.

The target of assay [1] is Plasmodium falciparum glyceraldehyde 3-phosphate dehydrogenase, wild type (recombinant) (Plasmodium falciparum) (UniProt Q8IKK7). The assay is described as follows: SEC; analytical size exclusion chromatography; 1mg of purified protein in 1mL of FPLC buffer (100mM Tris-HCl pH 7.5, 1mM MgCl2, 1mM DTT, 10% w/v glycerol); all proteins prepped the same day and dialyzed in the same buffer the night before at 4°C. (In general: Size exclusion chromatography separates by hydrodynamic size, large species first.)

Assay [2] deals with Plasmodium falciparum glyceraldehyde 3-phosphate dehydrogenase V238A variant (recombinant) (Plasmodium falciparum) (UniProt Q8IKK7). The description is as above.
Assay [3] deals with Plasmodium falciparum glyceraldehyde 3-phosphate dehydrogenase I209T variant (recombinant) (Plasmodium falciparum) (UniProt Q8IKK7). Described as above.
For assay [4], the target named is T1, glyceraldehyde 3-phosphate dehydrogenase (PfGAPDH, wild-type) (Plasmodium falciparum, UniProt Q8IKK7).
T1 construct: gene PF3D7_1462800; recombinant PfGAPDH, N-terminal 6x-His tag, N-term and C-term modifications for improved solubility
The experiment in a line: Michaelis-Menten kinetics of purified enzyme (Abs340, NADH formation). The format is biochemical.

Assay [5] has as its target T1, glyceraldehyde 3-phosphate dehydrogenase (PfGAPDH, wild-type). The assay is described as follows: heme titration by absorption spectroscopy (purified protein); enzyme inhibition also measured, EC50 =[…]. The format is binding.
Assay [6] addresses T2, glyceraldehyde 3-phosphate dehydrogenase (PfGAPDH I209T) (Plasmodium falciparum, UniProt Q8IKK7, I209T).
T2 construct: gene PF3D7_1462800; recombinant PfGAPDH, N-terminal 6x-His tag, N-term and C-term modifications for improved solubility
The assay is described as follows: heme titration by absorption spectroscopy (purified protein). It counts as binding.

For orientation: stoichiometry N means a count of units in the complex or per binding partner. “Plasmodium falciparum glyceraldehyde 3-phosphate dehydrogenase, wild type (recombinant) (from UniProt Q8IKK7 4-335) (enzyme)”: the stoichiometry N in assay [1] was 4.

Consider “Plasmodium falciparum glyceraldehyde 3-phosphate dehydrogenase V238A variant (recombinant) (from UniProt Q8IKK7 4-335) (enzyme)”, for which the stoichiometry N in assay [2] was 4 and 2.

With “Plasmodium falciparum glyceraldehyde 3-phosphate dehydrogenase I209T variant (recombinant) (from UniProt Q8IKK7 4-335) (enzyme)”, in assay [3], the stoichiometry N is 4 and 2.

As to `O=C[C@H](O)COP(=O)(O)O` [D-glyceraldehyde 3-phosphate], the “Michaelis-Menten kinetics of purified enzyme (Abs340, NADH formation)” value in assay [4] is “FSM-resistant and wild-type enzymes shared Michaelis-Menten constants for all three substrates NAD+, GAP, and Pi”.

`NC(=O)c1ccc[n+]([C@@H]2O[C@H](COP(=O)([O-])OP(=O)(O)OC[C@H]3O[C@@H](n4cnc5c(N)ncnc54)[C@H](O)[C@@H]3O)[C@@H](O)[C@H]2O)c1` [NAD+]: the “Michaelis-Menten kinetics of purified enzyme (Abs340, NADH formation)” value in assay [4] is “FSM-resistant and wild-type enzymes shared Michaelis-Menten constants for all three substrates NAD+, GAP, and Pi”.

The Kd is a measure of binding affinity in units of concentration. A lower Kd goes with tighter binding. Turning to `C=CC1=C(C)C2=Cc3c(C=C)c(C)c4[n]3[Fe][n]3c(c(C)c(CCC(=O)O)c3=CC3=NC(=C4)C(C)=C3CCC(=O)O)=CC1=N2` [heme], the Kd worked out at 740 nM in assay [5] and 1840 nM in assay [6].

The values above are taken from PMC9512246, “GAPDH mediates drug resistance and metabolism in Plasmodium falciparum malaria parasites” (PLoS Pathogens, 2022).
